# Measurements: PMC8425881, “De Novo Design of Peptidic Positive Allosteric Modulators Targeting TRPV1 with Analgesic Effects” (Advanced Science, 2021)
# Target: T1, Murine TRPV1 (Mus musculus, UniProt Q704Y3)
# T1 construct: full-length channel, eYFP fused to C terminus (pEYFP-N3), expressed in HEK293T; cDNA gift of Michael X. Zhu; homotetramer
# Test: whole-cell patch clamp, Hill fit
# Type: cell-based
# T1 sequence (Q704Y3 whole entry, the tested form may be a part): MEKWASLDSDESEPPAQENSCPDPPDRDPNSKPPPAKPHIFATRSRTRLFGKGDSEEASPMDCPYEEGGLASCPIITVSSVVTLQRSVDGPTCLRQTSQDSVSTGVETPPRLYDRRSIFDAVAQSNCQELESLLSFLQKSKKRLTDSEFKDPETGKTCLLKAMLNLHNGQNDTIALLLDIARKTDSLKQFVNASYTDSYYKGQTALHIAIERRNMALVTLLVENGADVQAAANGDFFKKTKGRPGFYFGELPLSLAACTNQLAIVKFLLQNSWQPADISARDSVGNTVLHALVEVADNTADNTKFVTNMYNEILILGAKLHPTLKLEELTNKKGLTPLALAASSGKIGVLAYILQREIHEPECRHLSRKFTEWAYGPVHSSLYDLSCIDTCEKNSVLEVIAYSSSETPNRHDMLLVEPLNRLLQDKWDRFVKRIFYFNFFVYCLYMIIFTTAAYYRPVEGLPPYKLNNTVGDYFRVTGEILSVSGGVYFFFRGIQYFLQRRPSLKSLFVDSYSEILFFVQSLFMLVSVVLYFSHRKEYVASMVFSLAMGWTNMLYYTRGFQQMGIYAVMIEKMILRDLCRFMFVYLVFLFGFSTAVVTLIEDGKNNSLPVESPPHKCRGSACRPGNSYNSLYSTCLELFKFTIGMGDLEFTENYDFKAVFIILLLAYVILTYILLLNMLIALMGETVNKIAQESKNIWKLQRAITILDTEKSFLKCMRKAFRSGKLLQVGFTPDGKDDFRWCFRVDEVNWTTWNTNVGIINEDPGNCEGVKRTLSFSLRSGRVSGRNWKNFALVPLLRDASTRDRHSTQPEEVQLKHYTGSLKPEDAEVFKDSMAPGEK
compound,measurement,value
COc1cc(CNC(=O)CCCC/C=C/C(C)C)ccc1O [capsaicin],EC50,186 nM
